Experimental data reported in patent US9078899B2, “Pyrazolyl-based carboxamides II” (Grünenthal GmbH, priority 2013, dated 2015).

What was measured:
[1] = target: T1, CRAC channel (Homo sapiens, UniProt Q96D31); assay: HEK Calcium Influx Assay (FLIPR); assay type: cell-based; conditions: 10 μM; endogenous SOC in HEK293 cells, thapsigargin store depletion, Ca2+ signal 9.5-10 min post-administration; read-out: % inhib.[@ 10 μM] FLIPR
T1 construct: host or cells: HEK293
Protocol: The effect of compounds of the invention on intracellular [Ca^2+] was tested in the HEK293 cell line (ECACC).
HEK293 cells were cultured in DMEM/F12/Glutamax (Gibco) containing 10% FCS (Gibco), and maintained at 37° C., 5% CO2. Cell were split twice a week [3*10^6 (Mon-Thu) and 1*10^6 (Thu-Mon) cells/50 ml medium in T-175 ZK culture flasks, respectively]. Twenty four hours pre-experiment, cells were seeded on 96 well plates (Poly-D-Lysine 96well Black/Clear Plate, BD Biocoat REF 356640) at a density of 40,000 cells/well in DMEM/F12 (Gibco) containing 10% FCS (Gibco), and maintained at 37° C., 5% CO2.
Prior to store-depletion, cell culture medium was removed and cells were loaded with the a Calcium-sensitive fluorescent dye comprised within the Calcium-4-assay kit (Molecular Devices) in nominally Ca^2+-free HBS buffer (140 mM NaCl, 4 mM KCl, 0.2 mM MgCl2, 11 mM D-glucose, and 10 mM HEPES, pH 7.4) according to manufacturer's instruction for 60 min at 37° C., 5% CO2.
Passive depletion of intracellular Ca^2+-stores was then triggered by employing the SERCA inhibitor thapsigargin (2 μM final) for 10 min in the dark (RT). To prevent immediate Ca^2+-entry via the activated Store-operated channels (SOCs), cells were maintained in Ca^2+-free HBS buffer comprising 100 μM EGTA during store-depletion.
Intracellular changes in [Ca^2+] were subsequently monitored with the FLIPR device (Molecular Devices). In brief, baseline imaging post-store depletion was allowed for 1 min before adjusting the extracellular buffer to 3 mM CaCl2. Increases in intracellular [Ca^2+] due to pre-activated SOC channels were monitored for 15 min until intracellular Ca^2+ levels had declined into a steady-state. Finally, compounds were administered and Ca^2+ signals were recorded for additional 10 min.
Inhibition of endogenous SOC in HEK293 cells was quantified employing the average Ca^2+ signal measured from 9.5-10 min post-administration. Zero percent inhibition (MAX) was defined as the Ca^2+ signal recorded from wells to which DMSO-only had been added instead of compound. Hundred percent inhibition (MIN) was defined as the signal obtained from wells in which cells haven't been treated with TG prior to Ca^2+ addition and to which DMSO-only had been added instead of compound. For routine IC50 determinations of compounds, 8 concentrations of a serial dilution (1:3.16) were tested, starting off from 10 μM. Reliable IC50's could consequently be determined only, if they were at least sub 2.5-3 μM.

[2] = tested on: Interleukin-2 (IL-2) production/release; assay: Jurkat IL-2 Production Assay; assay type: cell-based; conditions: Homo sapiens; Jurkat T cells clone E6-1, 15 μg/ml PHA for 22 hours, IL-2 in supernatant
Protocol: Jurkat IL-2 Production Assay
The effect of compounds of the invention on Interleukin-2 (IL-2) production/release was tested in the Jurkat T cell line (ECACC) clone E6-1.
Jurkat T cells were cultured in DMEM/F12/Glutamax (Gibco) containing 10% FCS (Gibco), and maintained at 37° C., 5% CO2. Cell were split twice a week [5*10^6 (Mon-Thu) and 1*10^7 (Thu-Mon) cells/50 ml medium in T-175 ZK culture flasks, respectively].
Prior to experiment, cells were seeded on 96 well plates (Cellstar 96 Well; Cat No. 655180, Greiner bio-one) at a density of 5*10^5 cells/well in DMEM/F12/Glutamax (Gibco) containing 10% FCS (Gibco), and incubated for 60 min at 37° C., 5% CO2. Subsequently, compounds were added and cells were allowed to incubate for 30 min at 37° C., 5% CO2. Cells were then stimulated with 15 μg/ml Phytohemagglutinin (PHA; Sigma) for 22 hours at 37° C., 5% CO2.
Before sampling of the supernatants, cells were spun down (200*g/5 min/RT). The amount of IL-2 released into the supernatant was quantified with the human IL-2 AlphaLisa kit (Perkin Elmer) according to manufacturer's instructions. Luminescence proximity measurements were carried out in the Synergy H4 reader (BioTek) employing the fluorescence setting of the reader (ex: 680/30 nm; em: 620/40 nm).
Inhibition of IL-Production/Release in/from Jurkat T Cells was Quantified as Follows:
Zero percent inhibition (MAX) was defined as the [IL-2] determined in supernatants derived from cells to which PHA & DMSO-only had been added instead of compound. Hundred percent inhibition (MIN) was defined as the [IL-2] determined in supernatants derived from cells that had been pre-treated with 1 μM CyclosporineA (Sigma) before the addition of 15 μg/ml PHA.
For routine IC50 determinations of compounds, 8 concentrations of a serial dilution (1:3.16) were tested, starting off from 10 μM.

T1 sequence (Q96D31 whole entry): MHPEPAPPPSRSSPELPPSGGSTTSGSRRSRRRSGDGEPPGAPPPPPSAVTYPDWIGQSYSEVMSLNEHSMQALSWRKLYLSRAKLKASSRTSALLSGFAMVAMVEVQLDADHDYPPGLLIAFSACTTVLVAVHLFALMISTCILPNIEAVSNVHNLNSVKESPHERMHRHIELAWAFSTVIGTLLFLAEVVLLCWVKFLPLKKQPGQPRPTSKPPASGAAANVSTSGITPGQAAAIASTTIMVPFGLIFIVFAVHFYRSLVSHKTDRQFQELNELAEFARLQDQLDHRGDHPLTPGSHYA

Compound	inhibition at 10 µM [1] [%]	IC50 [2] [µM]
Cn1nc(C(=O)Nc2c(F)cccc2F)cc1-c1ccc(OC(F)(F)F)cc1Cl [Example 12, 5-[2-Chloro-4-(trifluoromethyloxy)-phenyl]-N-(2,6-difluoro-phenyl)-1-methyl-1H-pyrazole-3-carboxylic acid amide]	> 70	0.5 to 1
COc1ccc(OC)c(-c2cc(C(=O)Nc3ccncc3C#N)nn2C)c1 [Example 15, N-(3-Cyano-pyridin-4-yl)-5-(2,5-dimethoxyphenyl)-1-methyl-1H-pyrazole-3-carboxylic acid amide]	50 to 70	1 to 5
COc1ccc(OC)c(-c2cc(C(=O)Nc3cnccc3C)nn2C)c1 [Example 16, 5-(2,5-Dimethoxyphenyl)-1-methyl-N-(4-methyl-pyridin-3-yl)-1H-pyrazole-3-carboxylic acid amide]	> 70	1 to 5
COc1ccc(OC)c(-c2cc(C(=O)Nc3cnc(C)cc3C)nn2C)c1 [Example 17, 5-(2,5-Dimethoxyphenyl)-N-(4,6-dimethyl-pyridin-3-yl)-1-methyl-1H-pyrazole-3-carboxylic acid amide]	50 to 70	1 to 5
COc1ccc(OC)c(-c2cc(C(=O)Nc3ncncc3C)nn2C)c1 [Example 18, 5-(2,5-Dimethoxyphenyl)-1-methyl-N-(5-methyl-pyrimidin-4-yl)-1H-pyrazole-3-carboxylic acid amide]	< 50	1 to 5
COc1ccc(OC)c(-c2cc(C(=O)Nc3ccncc3C)nn2C)c1 [Example 20, 5-(2,5-Dimethoxyphenyl)-1-methyl-N-(3-methyl-pyridin-4-yl)-1H-pyrazole-3-carboxylic acid amide]	> 70	0.5 to 1
COc1ccc(OC)c(-c2cc(C(=O)Nc3c(F)cccc3F)nn2C)c1 [Example 21, N-(2,6-Difluoro-phenyl)-5-(2,5-dimethoxyphenyl)-1-methyl-1H-pyrazole-3-carboxylic acid amide]	> 70	< 0.5
COc1ccc(OC)c(-c2c(C)c(C(=O)Nc3ccncc3F)nn2C)c1 [Example 25, 5-(2,5-Dimethoxyphenyl)-N-(3-fluoro-pyridin-4-yl)-1,4-dimethyl-1H-pyrazole-3-carboxylic acid amide]	> 70	0.5 to 1
Cc1ccc(Cl)cc1-c1cc(C(=O)Nc2c(F)cccc2F)nn1C [Example 26, 5-(5-Chloro-2-methyl-phenyl)-N-(2,6-difluoro-phenyl)-1-methyl-1H-pyrazole-3-carboxylic acid amide]	> 70	1 to 5
COc1ccc(OC)c(-c2cc(C(=O)Nc3ccccc3C)nn2C)c1 [Example 27, 5-(2,5-Dimethoxyphenyl)-1-methyl-N-(o-tolyl)-1H-pyrazole-3-carboxylic acid amide]	> 70	1 to 5
Cc1ccc(C(F)(F)F)cc1-c1cc(C(=O)Nc2c(F)cccc2F)nn1C [Example 30, N-(2,6-Difluoro-phenyl)-1-methyl-5-[2-methyl-5-(trifluoromethyl)-phenyl]-1H-pyrazole-3-carboxylic acid amide]	> 70	0.5 to 1
COc1cc(F)c(NC(=O)c2cc(-c3cc(OC)ccc3OC)n(C)n2)c(F)c1 [Example 31, N-(2,6-Difluoro-4-methoxy-phenyl)-5-(2,5-dimethoxyphenyl)-1-methyl-1H-pyrazole-3-carboxylic acid amide]	> 70	< 0.5
COc1ccc(OC)c(-c2cc(C(=O)Nc3c(C)cccc3F)nn2C)c1 [Example 32, 5-(2,5-Dimethoxyphenyl)-N-(2-fluoro-6-methyl-phenyl)-1-methyl-1H-pyrazole-3-carboxylic acid amide]	> 70	< 0.5
COc1ccc(OC)c(-c2cc(C(=O)Nc3c(F)cncc3F)nn2C)c1 [Example 34, N-(3,5-Difluoro-pyridin-4-yl)-5-(2,5-dimethoxyphenyl)-1-methyl-1H-pyrazole-3-carboxylic acid amide]	> 70	< 0.5
COc1ccc(OC)c(-c2cc(C(=O)Nc3c(F)cccc3Cl)nn2C)c1 [Example 35, N-(2-Chloro-6-fluoro-phenyl)-5-(2,5-dimethoxyphenyl)-1-methyl-1H-pyrazole-3-carboxylic acid amide]	> 70	< 0.5
Cn1nc(C(=O)Nc2c(F)cccc2F)cc1-c1cc(C(F)(F)F)ccc1Cl [Example 36, 5-[2-Chloro-5-(trifluoromethyl)-phenyl]-N-(2,6-difluoro-phenyl)-1-methyl-1H-pyrazole-3-carboxylic acid amide]	> 70	< 0.5
COc1ccc(OC)c(-c2c(Cl)c(C(=O)Nc3c(F)cccc3F)nn2C)c1 [Example 39, 4-Chloro-N-(2,6-difluoro-phenyl)-5-(2,5-dimethoxyphenyl)-1-methyl-1H-pyrazole-3-carboxylic acid amide]	> 70	< 0.5
COc1ccc(OC)c(-c2c(Cl)c(C(=O)Nc3ccncc3F)nn2C)c1 [Example 40, 4-Chloro-5-(2,5-dimethoxyphenyl)-N-(3-fluoro-pyridin-4-yl)-1-methyl-1H-pyrazole-3-carboxylic acid amide]	> 70	1 to 5
CCc1c(C(=O)Nc2c(F)cccc2F)nn(C)c1-c1cc(OC)ccc1OC [Example 42, N-(2,6-Difluoro-phenyl)-5-(2,5-dimethoxyphenyl)-4-ethyl-1-methyl-1H-pyrazole-3-carboxylic acid amide]	50 to 70	1 to 5
COc1ccc(OC)c(-c2c(CO)c(C(=O)Nc3c(F)cccc3F)nn2C)c1 [Example 43, N-(2,6-Difluoro-phenyl)-5-(2,5-dimethoxyphenyl)-4-(hydroxymethyl)-1-methyl-1H-pyrazole-3-carboxylic acid amide]	< 50	1 to 5
COc1ccc(OC)c(-c2c(N)c(C(=O)Nc3c(F)cccc3F)nn2C)c1 [Example 44, 4-Amino-N-(2,6-difluoro-phenyl)-5-(2,5-dimethoxyphenyl)-1-methyl-1H-pyrazole-3-carboxylic acid amide]	50 to 70	1 to 5
Cn1nc(C(=O)Nc2c(F)cccc2F)cc1-c1cc(OC(F)(F)F)ccc1C1CC1 [Example 45, 5-[2-Cyclopropyl-5-(trifluoromethyloxy)-phenyl]-N-(2,6-difluoro-phenyl)-1-methyl-1H-pyrazole-3-carboxylic acid amide]	> 70	0.5 to 1
Cn1nc(C(=O)Nc2c(F)cncc2F)cc1-c1cc(OC(F)(F)F)ccc1C1CC1 [Example 46, 5-[2-Cyclopropyl-5-(trifluoromethyloxy)-phenyl]-N-(3,5-difluoro-pyridin-4-yl)-1-methyl-1H-pyrazole-3-carboxylic acid amide]	> 70	< 0.5
